Legend:
[1] = test system: microfilariae of Dirofilaria immitis; test: Dirofilaria immitis, Microfilaria (DiMF) In vitro Assay; type: cell-based; conditions: 72 h, read-out: DiMF Minimum Effective Dose (MED), approximately 72 hours incubation, microfilariae assessed for survival or paralysis
[2] = test system: third stage larvae of Haemonchus contortus; test: Haemonchus contortus L3 (HcL3) Assay; type: cell-based; conditions: 96 h, read-out: HcL3 Minimum Effective Dose (MED)

Compound | minimal effective concentration [1] [µM] | minimal effective concentration [2] [µM]
CC(C)C[C@H]1C(=O)O[C@H](Cc2ccc(Cn3ccnn3)cc2)C(=O)N(C)[C@@H](CC(C)C)C(=O)O[C@H](C)C(=O)N(C)[C@@H](CC(C)C)C(=O)O[C@H](Cc2ccc(Cn3ccnn3)cc2)C(=O)N(C)[C@@H](CC(C)C)C(=O)O[C@H](C)C(=O)N1C [Example 9-6, (3S,6R,9S,12R,15S,18R,21S,24R)-6,18-bis(4-((1H-1,2,3-triazol-1-yl)methyl)benzyl)-3,9,15,21-tetraisobutyl-4,10,12,16,22,24-hexamethyl-1,7,13,19-tetraoxa-4,10,16,22-tetraazacyclotetracosan-2,5,8,11,14,17,20,23-octaone] | 0.001 to 0.01 | 1 to 10
CC(C)C[C@H]1C(=O)O[C@H](Cc2ccc(CN3C(=O)CCC3=O)cc2)C(=O)N(C)[C@@H](CC(C)C)C(=O)O[C@H](C)C(=O)N(C)[C@@H](CC(C)C)C(=O)O[C@H](Cc2ccc(CN3C(=O)CCC3=O)cc2)C(=O)N(C)[C@@H](CC(C)C)C(=O)O[C@H](C)C(=O)N1C [Example 9-11, (3S,6R,9S,12R,15S,18R,21S,24R)-6,18-bis(4-((2,5-dioxopyrrolidin-1-yl)methyl)benzyl)-3,9,15,21-tetraisobutyl-4,10,12,16,22,24-hexamethyl-1,7,13,19-tetraoxa-4,10,16,22-tetraazacyclotetracosan-2,5,8,11,14,17,20,23-octaone] | 0.001 to 0.01 | 1 to 10
CC(C)C[C@H]1C(=O)O[C@H](Cc2ccc(Cn3ccccc3=O)cc2)C(=O)N(C)[C@@H](CC(C)C)C(=O)O[C@H](C)C(=O)N(C)[C@@H](CC(C)C)C(=O)O[C@H](Cc2ccc(Cn3ccccc3=O)cc2)C(=O)N(C)[C@@H](CC(C)C)C(=O)O[C@H](C)C(=O)N1C [Example 9-28, (3S,6R,9S,12R,15S,18R,21S,24R)-3,9,15,21-tetraisobutyl-4,6,10,16,18,22-hexamethyl-12,24-bis(4-((2-oxopyridin-1 (2H)-yl)methyl)benzyl)-1,7,13,19-tetraoxa-4,10,16,22-tetraazacyclotetracosan-2,5,8,11,14,17,20,23-octaone] | 0.001 to 0.01 | 1 to 10
CC(C)C[C@H]1C(=O)O[C@H](Cc2ccc(Cn3ncnc3-c3ccccc3)cc2)C(=O)N(C)[C@@H](CC(C)C)C(=O)O[C@H](C)C(=O)N(C)[C@@H](CC(C)C)C(=O)O[C@H](Cc2ccc(Cn3ncnc3-c3ccccc3)cc2)C(=O)N(C)[C@@H](CC(C)C)C(=O)O[C@H](C)C(=O)N1C [Example 9-34, (3S,6R,9S,12R,15S,18R,21S,24R)-3,9,15,21-tetraisobutyl-4,6,10,16,18,22-hexamethyl-12,24-bis(4-((5-phenyl-1H-1,2,4-triazol-1-yl)methyl)benzyl)-1,7,13,19-tetraoxa-4,10,16,22-tetraazacyclotetracosan-2,5,8,11,14,17,20,23-octaone] | 0.001 to 0.01 | 1 to 10
CC(C)C[C@H]1C(=O)O[C@H](Cc2ccc(Cn3cc4c(n3)CCOC4)cc2)C(=O)N(C)[C@@H](CC(C)C)C(=O)O[C@H](C)C(=O)N(C)[C@@H](CC(C)C)C(=O)O[C@H](Cc2ccc(Cn3cc4c(n3)CCOC4)cc2)C(=O)N(C)[C@@H](CC(C)C)C(=O)O[C@H](C)C(=O)N1C [Example 9-41, (3S,6R,9S,12R,15S,18R,21S,24R)-6,18-bis(4-((6,7-dihydropyrano[4,3-c]pyrazol-2(4H)-yl)methyl)benzyl)-3,9,15,21-tetraisobutyl-4,10,12,16,22,24-hexamethyl-1,7,13,19-tetraoxa-4,10,16,22-tetraazacyclotetracosan-2,5,8,11,14,17,20,23-octaone] | 0.001 to 0.01 | 1 to 10

From patent US11331369B2, “Endoparasitic depsipeptides” (Zoetis Services LLC, priority 2017, dated 2022)
